Measured values from US20250109140A1, “5-[5-(PIPERIDIN-4-YL)THIENO[3,2-C]PYRAZOL-2-YL]INDAZOLE DERIVATIVES AND RELATED COMPOUNDS AS MODULATORS FOR SPLICING NUCLEIC ACIDS AND FOR THE TREATMENT OF PROLIFERATIVE DISEASES” (REMIX THERAPUTICS INC., priority 2022, published 2025).
Counter-ions that a name gives are not always drawn. Like-named read-outs stand apart in the source and are kept apart here.

Experiments:
Type in all cases: cell-based
HTT mRNA = assay: Splicing RT-qPCR assay, HTT canonical (CJ) and alternative (AJ) junction mRNA; conditions: Homo sapiens; for EC50: AC50 = 50% response in AJ mRNA increase
Protocol: (§1) Compounds described herein were used to modulate RNA transcript abundance in cells. The expression of a target mRNA was measured by detecting the formation of an exon-exon junction in the canonical transcript (CJ). A compound mediated exon-inclusion event was detected by observing an increase in formation of a new junction with an alternative exon (AJ). Real-time qPCR assays were used to detect these splicing switches and interrogate the potency of various compounds towards different target genes. A high-throughput real time quantitative PCR (RT-qPCR) assay was developed to measure these two isoforms of the mRNA (CJ and AJ) for exemplary genes, such as HTT, SMN2, and MYB, together with a control housekeeping gene, GAPDH or GUSB or PPIA, used for normalization. Briefly, the A673 or K562 cell line was treated with various compounds described herein (e.g., compounds of Formula (I)). After treatment, the levels of the HTT, MYB, or SMN2 mRNA targets were determined from each sample of cell lysate by cDNA synthesis followed by qPCR.
(§2) The A673 cell line was cultured in DMEM with 10% FBS. Cells were diluted with full growth media and plated in a 96-well plate (15,000 cells in 100 ul media per well). The plate was incubated at 37° C. with 5% CO2 for 24 hours to allow cells to adhere. An 11-point 3-fold serial dilution of the compounds was made in DMSO then diluted in media in an intermediate plate. Compounds were transferred from the intermediate plate to the cell plate with the top dose at a final concentration of 10 uM in the well. Final DMSO concentration was kept at or below 0.25%. The cell plate was returned to the incubator at 37° C. with 5% CO2 for an additional 24 hours.
(§3) The K562 cell line was cultured in IMDM with 10% FBS. For K562, cells were diluted with full growth media and plated in either a 96-well plate (50,000 cells in 50 uL media per well) or a 384-well plate (8,000-40,000 cells in 45 uL media per well). An 11-point 3-fold serial dilution of the compounds were made in DMSO then diluted in media in an intermediate plate. Compound was transferred from the intermediate plate to the cell plate with the top dose at a final concentration of 10 uM in the well. Final DMSO concentration was kept at or below 0.25%. Final volume was 100 uL for 96-well plate and 50 uL for 384-well plate. The cell plate was then placed in an incubator at 37° C. with 5% CO2 for 24 hours.
(§4) The cells were then gently washed with 50 uL-100 uL cold PBS before proceeding to addition of lysis buffer. 30 uL-50 uL of room temperature lysis buffer with DNAse I (and optionally RNAsin) was added to each well. Cells were shaken/mixed thoroughly at room temperature for 5-10 minutes for lysis to take place and then 3 uL-5 uL of room temperature stop solution was added and wells were shaken/mixed again. After 2-5 minutes, the cell lysate plate was transferred to ice for RT-qPCR reaction setup. The lysates could also be frozen at-80° C. for later use.
(§5) In some cases, a direct lysis buffer was used. An appropriate volume of 3× lysis buffer (10 mM Tris, 150 mM NaCl, 1.5%-2.5% Igepal and 0.1-1 U/uL RNAsin, pH 7.4) was directly added to either K562 or A673 cells in media and mixed by pipetting 3 times. The plates were then incubated at room temperature with shaking/rocking for 20-50 minutes to allow for lysis to take place. After this time, the cell lysate plate was transferred to ice to set up for the RT-qPCR reactions. The lysates could also be frozen at −80° C. for later use.
(§6) To set up 10 uL RT-qPCR reactions, cell lysates were transferred to 384-well qPCR plates containing the master mix according to the table below. The plates were sealed, gently vortexed, and spun down before the run. The volumes were adjusted accordingly in some instances where the reaction was carried in 20 μL. The table below summarizes the components of the RT-qPCR reactions:
(§7) The RT-qPCR reaction was performed using a QuantStudio (ThermoFisher) under the following fast cycling conditions. […]

MYB mRNA = assay: Splicing RT-qPCR assay, MYB canonical (CJ) and alternative (AJ) junction mRNA; conditions: Homo sapiens; for EC50: AC50 = 50% response in AJ mRNA increase
Protocol: as §1, §2, §3, §4, §5, §6, §7

SMN2 mRNA = assay: Splicing RT-qPCR gene panel, SMN2 canonical junction (CJ) mRNA; conditions: Homo sapiens; Table 8; larger gene panel, decrease in CJ mRNA levels
Protocol: as §1, §2, §3, §4, §5, §6, §7

Target C mRNA = assay: Splicing RT-qPCR gene panel, Target C canonical junction (CJ) mRNA; conditions: Homo sapiens; Table 8; larger gene panel, decrease in CJ mRNA levels
Protocol: as §1, §2, §3, §4, §5, §6, §7

[1] = Table 7, RT-qPCR, A673 or K562 cells, 24 hours treatment
[2] = Table 7, IC50 = 50% response in CJ mRNA decrease, RT-qPCR, A673 or K562 cells, 24 hours treatment, read-out: HTT CJ
[3] = Table 8, larger gene panel, decrease in CJ mRNA levels, read-out: HTT CJ IC50
[4] = Table 7, IC50 = 50% response in CJ mRNA decrease, RT-qPCR, A673 or K562 cells, 24 hours treatment, read-out: MYB CJ
[5] = Table 8, larger gene panel, decrease in CJ mRNA levels, read-out: MYB CJ IC50

EC50 (HTT mRNA; [1])	IC50 (HTT mRNA; [2])	IC50 (HTT mRNA; [3])	EC50 (MYB mRNA; [1])	IC50 (MYB mRNA; [4])	IC50 (MYB mRNA; [5])	IC50 (SMN2 mRNA)	IC50 (Target C mRNA)	SMILES
1 to 10 µM	1 to 10 µM	1 to 10 µM	1 to 10 µM	1 to 10 µM	1 to 10 µM	0.1 to 1 µM	1 to 10 µM	Cc1cn2nc(-c3nc4sc(C5CNC5)cc4s3)cc(C)c2n1 [Compound 235, 3-(2-{2,8-dimethylimidazo[1,2-b]pyridazin-6-yl}thieno[2,3-d][1,3]thiazol-5-yl) azetidine]
1 to 10 µM	0.1 to 1 µM	1 to 10 µM	1 to 10 µM	0.1 to 1 µM	1 to 10 µM	0.1 to 1 µM	1 to 10 µM	Cn1cc2cc(-c3nc4sc(C5(O)CCNCC5)cc4s3)cc(F)c2n1 [Compound 236, 4-[2-(7-fluoro-2-methylindazol-5-yl)thieno[2,3-d][1,3]thiazol-5-yl]piperidin-4-ol]
1 to 10 µM	1 to 10 µM	1 to 10 µM	1 to 10 µM	1 to 10 µM	1 to 10 µM	0.1 to 1 µM	> 10 µM	Cn1cc2cc(-c3nc4sc([C@H]5CCNC[C@H]5F)cc4s3)cc(F)c2n1 [Compound 240, 7-fluoro-5-{5-[(3S,4S)-3-fluoropiperidin-4-yl]thieno[2,3-d][1,3]thiazol-2-yl}-2-methylindazole]

Further lines, the compound ahead of its results:

SMILES	EC50 (HTT mRNA; [1])	IC50 (HTT mRNA; [2])	IC50 (HTT mRNA; [3])	EC50 (MYB mRNA; [1])	IC50 (MYB mRNA; [4])	IC50 (MYB mRNA; [5])	IC50 (SMN2 mRNA)	IC50 (Target C mRNA)
Cc1cn2cc(-c3nc4sc(C5CCNCC5)cc4s3)cc(F)c2n1 [Compound 130, 4-(2-[8-fluoro-2-methylimidazo[1,2-a]pyridin-6-yl]thieno[2,3-d][1,3]thiazol-5-yl)piperidine hydrochloride]	< 0.1 µM	< 0.1 µM	< 0.1 µM	< 0.1 µM	< 0.1 µM	< 0.1 µM	< 0.1 µM	< 0.1 µM
Cn1cc2cc(-c3cn4nc(C5CCNCC5)nc4s3)cc(F)c2n1 [Compound 102, 7-fluoro-2-methyl-5-[2-(piperidin-4-yl)-[1,2,4]triazolo[3,2-b][1,3]thiazol-5-yl]indazole]	0.1 to 1 µM	0.1 to 1 µM	0.1 to 1 µM	1 to 10 µM	0.1 to 1 µM	1 to 10 µM	< 0.1 µM	0.1 to 1 µM
Cn1cc2cc(-c3nc4sc(N5CCC(NC(C)(C)C)C5)cc4s3)cc(F)c2n1 (centres unmarked) [Compound 143, N-tert-butyl-1-[2-(7-fluoro-2-methylindazol-5-yl)thieno[2,3-d][1,3]thiazol-5-yl]pyrrolidin-3-amine]	1 to 10 µM	1 to 10 µM	1 to 10 µM	0.1 to 1 µM	1 to 10 µM	0.1 to 1 µM	0.1 to 1 µM	1 to 10 µM
Cn1cc2cc(-c3nc4sc(N5CCC56CCNCC6)cc4s3)cc(F)c2n1 [Compound 201, 1-[2-(7-fluoro-2-methylindazol-5-yl)thieno[2,3-d][1,3]thiazol-5-yl]-1,7-diazaspiro[3.5]nonane]	> 10 µM	> 10 µM	> 10 µM	> 10 µM	> 10 µM	> 10 µM	> 10 µM	> 10 µM
Cn1cc2cc(-n3cc4sc(C5CCNCC5)cc4n3)ccc2n1 [Compound 100, 2-methyl-5-[5-(piperidin-4-yl)thieno[3,2-c]pyrazol-2-yl]indazole]	1 to 10 µM		1 to 10 µM	> 10 µM	> 10 µM	> 10 µM		> 10 µM
